Test results reported in patent publication US20240335404A1, “SUBSTITUTED ESTERS CONTAINING POLYOLS AND SACCHARIDES FOR TREATING HEPATOTOXICITY AND FATTY LIVER DISEASES” (SINEW PHARMA INC., priority 2015, published 2024).

Assays:
[1] = tested on: fatty liver; assay: High fat diet-induced fatty liver in B6 mice; assay type: in vivo; settings: HFD mice; for GSH / Gpx / Grd / SOD: liver; for ALT / AST / TC in liver / TG in liver: administration period of 4 weeks; for liver TC / liver TG: 4 or 8 weeks; for ALT and AST values: compounds administered separately
Method: More than four mice were used in each group of the pre-test, while more than twelve mice were used in each group of the confirmatory test. […] The animal test was carried out according to the guideline for animal experiment of National Health Research Institutes. […] The weight of mice was recorded once a week. The tested animals were grouped randomly into Blank, High Fat Diet control (HFD), Positive Control (PS), and Test group. The animals of Blank were fed with normal feed. The animals of HFD were fed with high fat feed. […] The animals of Test group were fed with high fat feed, and additionally fed with test compounds by a tube. The animals of Blank were fed casually with normal feed for 12 weeks, while the animals of HFD, PS, and Test group were fed casually with high fat feed for 12 weeks. After 8 weeks of feeding, the animals of Blank and HFD were fed with deionized water by a tube once a day; the animals of PS were fed with silymarin by a tube once a day; and the animals of Test Group were fed with test compounds by a tube once a day for a duration of 4 or 8 weeks. Before testing and in the eighth, twelfth, and sixteenth week after testing, blood was collected from the cheek or the heart. At the end of testing, all mice were weighted and then sacrificed, and blood was collected from the cheek or the heart simultaneously. The blood specimens of mice rested at room temperature for one hour to clot, and then the serum was separated by centrifugation in a refrigeration centrifuge at 15,700×g at 4° C. for 5 minutes. Afterwards, biochemical indices of liver function, including aspartate transaminase (AST), alanine aminotransferase (ALT), triglyceride (TG), total cholesterol (TCHO/TC), low-density lipoprotein cholesterol (LDL-C), and high-density lipoprotein cholesterol (HDL-C), were detected by the automatic blood biochemistry analyzer. In addition, abdominal fat and liver specimens were taken from the abdomens of sacrificed mice and weighted to compare the weight of fat and liver and obtain the ratio of liver weight to body weight. […] The cut sections proceeded with H&E staining for histopathological observation. Moreover, the rest of the liver was frozen for preservation and detection of the contents of triglyceride and total cholesterol in the liver. Furthermore, the liver function of animals of each group were analyzed by Galactose Single Point Method, which was recognized and recommended for quantification of remaining liver function in clinical use by U.S. FDA and Ministry of Health and Welfare, Taiwan. […] One hour after the administration, about 0.5 ml of whole blood was taken by using a filter paper to evaluate liver function of mice. The higher the value of GSP was, the worse the remaining liver function would be. (FDA: “Guidance for Industry: Pharmacokinetics in Patients with Impaired. Hepatic Function-Study Design, Data Analysis and Impact on Dosing and. Labeling. 2003. At the end of the test, all mice were sacrificed. […] Afterwards, xylene was replaced with hot paraffin solution. At last, the tissue was embedded with paraffin solution. The finished paraffin specimen was cut into […] paraffin sections by the microtome. The sections were pasted on clean slides, dried at 37° C., and then stained by H&E staining. In order to observe the changes of lesion, fat accumulation, necrosis, or fibrosis in liver cells when there was an ongoing liver damage, liver tissues were H&E stained to evaluate the degree of liver fat accumulation. All the histopathological sections were cut from the same position on the largest right lobe of liver for eliminating bias in subjective observation, and then subject to pathological staining. As for the assessment of semi-quantitative analysis in pathology, it had to be confirmed by a physician or a veterinary pathologist who conducted a double-blind analysis to score (NAS score) and compare all the sections without knowing the test design. […]

[2] = molecular target: CYP2E1 (Homo sapiens, UniProt P05181); assay: CYP2E1 inhibitory activity assay in human liver microsomes (CZX to 6-OH-CZX)
Sequence of CYP2E1 (P05181 whole entry): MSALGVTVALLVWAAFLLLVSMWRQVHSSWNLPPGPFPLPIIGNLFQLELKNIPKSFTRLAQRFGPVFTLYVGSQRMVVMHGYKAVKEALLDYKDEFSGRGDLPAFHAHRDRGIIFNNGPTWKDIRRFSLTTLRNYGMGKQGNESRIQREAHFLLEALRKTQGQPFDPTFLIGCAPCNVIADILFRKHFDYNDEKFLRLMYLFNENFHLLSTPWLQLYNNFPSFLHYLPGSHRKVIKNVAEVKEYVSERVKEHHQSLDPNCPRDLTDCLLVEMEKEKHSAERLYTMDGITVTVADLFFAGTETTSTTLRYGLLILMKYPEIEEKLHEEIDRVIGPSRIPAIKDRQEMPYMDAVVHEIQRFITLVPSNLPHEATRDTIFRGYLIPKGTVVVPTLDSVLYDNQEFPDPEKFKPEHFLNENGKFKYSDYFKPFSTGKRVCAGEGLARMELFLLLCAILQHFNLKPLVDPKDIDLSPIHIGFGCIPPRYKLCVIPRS
Method: After addition of the test sample, the amount of CYP450 isozyme metabolite standard 6-OH-CZX (6-Hydroxy-Chlorzoxazone) is specific used for calculation of the CYP450 isozyme (CYP2E1) inhibition ratio of the test sample by using the amount of 6-OH-CZX of the control group as the baseline.
All samples were tested in triplicate. To determine the percentage inhibition, each test compound was dissolved in 1, 2, 4 μg/mL to three different concentrations. The CYP2E1 activity levels in the presence of the test compounds were compared with the control incubations. The 500-μL reaction mixture, containing 0.5 mg of microsomal protein, was incubated with 320 μM CZX in the presence of 5 mM MgCl2 and 1 mM NADPH in 50 mM phosphate buffer with pH 7.4 at 37° C. for 30 min. The reaction was terminated by ice-cold acetonitrile, and then 4-hydroxyl tolbutamide was added as an internal standard. The organic phase was evaporated to dryness and reconstituted into the mobile phase (methanol:water=1:1) prior to liquid chromatography-tandem mass spectrometry (LC-MS/MS) analysis. An API 3000 triple-quadrupole mass spectrometer equipped with an ion-spray (ESI) source was used to determine 6-OH-CZX in the human liver microsomes. The ESI interface was used in the positive-ion mode. The 6-OH-CZX was monitored at a transition of m/z 284.5→185.9.
The CYP450 isozyme activity levels in the presence of the test compounds were compared with the control incubations.

[3] = 1.5 mg/kg, test period of 4 weeks
[4] = 4.5 mg/kg, test period of 4 weeks
[5] = 7.5 mg/kg, test period of 4 weeks

Compound: OC[C@@H](O)[C@@H](O)[C@H](O)[C@H](O)CO [Mannitol]
- weight of abdominal fat [1]: reduce the weight of abdominal fat in animals significantly
- GSH [1, 3]: 1502.5 ± 276.9 U/L
- Gpx [1, 3]: 2580.0 ± 555.2 U/L
- Grd [1, 3]: 95.3 ± 22.1 U/L
- SOD [1, 3]: 367.3 ± 35.6 U/L
- GSH [1, 4]: 1605.1 ± 305.9 U/L
- Gpx [1, 4]: 3423.3 ± 547.8 U/L
- Grd [1, 4]: 110.1 ± 18.4 U/L
- SOD [1, 4]: 429.2 ± 85.2 U/L
- GSH [1, 5]: 2147.7 ± 459.1 U/L
- Gpx [1, 5]: 3738.3 ± 665.1 U/L
- Grd [1, 5]: 117.6 ± 32.0 U/L
- SOD [1, 5]: 462.8 ± 52.8 U/L
- Abdominal fat weight ([1]; 1.5 mg/kg): 2.0 ± 0.3 g
- Increase of body weight ([1]; 1.5 mg/kg): 10.9 ± 7.4 g
- Liver weight ([1]; 1.5 mg/kg): 1.4 ± 0.2 g
- ALT ([1]; 1.5 mg/kg): 40.8 ± 11.4 U/L
- AST ([1]; 1.5 mg/kg): 187.2 ± 142.1 U/L
- TC in liver ([1]; 1.5 mg/kg): 3.4 ± 0.6 mg/g liver
- TG in liver ([1]; 1.5 mg/kg): 61.8 ± 32.6 mg/g liver
- Abdominal fat weight ([1]; 4.5 mg/kg): 2.7 ± 0.3 g
- Increase of body weight ([1]; 4.5 mg/kg): 11.1 ± 7.7 g
- Liver weight ([1]; 4.5 mg/kg): 1.4 ± 0.2 g
- ALT ([1]; 4.5 mg/kg): 44.5 ± 15.9 U/L
- AST ([1]; 4.5 mg/kg): 107.6 ± 54.3 U/L
- TC in liver ([1]; 4.5 mg/kg): 7.2 ± 2.8 mg/g liver
- TG in liver ([1]; 4.5 mg/kg): 71.5 ± 45.5 mg/g liver
- Abdominal fat weight ([1]; 7.5 mg/kg): 2.4 ± 0.3 g
- Increase of body weight ([1]; 7.5 mg/kg): 10.3 ± 8.5 g
- Liver weight ([1]; 7.5 mg/kg): 1.4 ± 0.1 g
- ALT ([1]; 7.5 mg/kg): 25.0 ± 10.8 U/L
- AST ([1]; 7.5 mg/kg): 63.3 ± 7.7 U/L
- TC in liver ([1]; 7.5 mg/kg): 4.7 ± 1.2 mg/g liver
- TG in liver ([1]; 7.5 mg/kg): 53.8 ± 24.4 mg/g liver
- NAS [1, 5]: 1.7 ± 0.8 mg/g liver
- reduction in ALT value ([1]; 4-week treatment, p<0.005): about 64%
- reduction in AST value ([1]; 4-week treatment, p<0.005): about 60%
- liver TC [1]: reduce TC in liver significantly
- liver TG [1]: reduce TG in liver significantly
- liver antioxidant activity ([1]; 4 weeks): improve antioxidant activity significantly
- liver damage, NAS ([1]; 4 weeks): reduce liver damage significantly
- ALT and AST values [1]: reduce ALT and AST values significantly
- liver tissue sections, H&E ([1]; treated for 4 weeks, FIG. 5): large vesicular fat droplets within liver cells in liver tissue section were significantly reduced
- P450 2E1 inhibitor activity [2]: effective as P450 2E1 inhibitors
- CYP 2E1 inhibition ratio (%) ([2]; 1 μg/mL): 30.1 ± 2.4%
- CYP 2E1 inhibition ratio (%) ([2]; 2 μg/mL): 34.1 ± 4.1%
- CYP 2E1 inhibition ratio (%) ([2]; 4 μg/mL): 40.3 ± 1.6%

Compound: OC[C@H]1O[C@H](O[C@]2(CCl)O[C@H](CCl)[C@@H](O)[C@@H]2O)[C@H](O)[C@@H](O)[C@H]1Cl [Sucralose]
- weight of abdominal fat [1]: reduce the weight of abdominal fat in animals significantly
- GSH [1, 3]: 1448.0 ± 281.5 U/L
- Gpx [1, 3]: 2995.0 ± 651.1 U/L
- Grd [1, 3]: 100.0 ± 18.6 U/L
- SOD [1, 3]: 373.0 ± 50.4 U/L
- GSH [1, 5]: 1609.1 ± 201.1 U/L
- Gpx [1, 5]: 3334.0 ± 377.7 U/L
- Grd [1, 5]: 90.4 ± 17.2 U/L
- SOD [1, 5]: 399.0 ± 34.5 U/L
- Abdominal fat weight ([1]; 1.5 mg/kg): 2.1 ± 0.6 g
- Increase of body weight ([1]; 1.5 mg/kg): 17.0 ± 5.6 g
- Liver weight ([1]; 1.5 mg/kg): 1.5 ± 0.2 g
- ALT ([1]; 1.5 mg/kg): 30.9 ± 16.8 U/L
- AST ([1]; 1.5 mg/kg): 127.0 ± 31.2 U/L
- TC in liver ([1]; 1.5 mg/kg): 3.0 ± 0.9 mg/g liver
- TG in liver ([1]; 1.5 mg/kg): 68.9 ± 37.5 mg/g liver
- Abdominal fat weight ([1]; 7.5 mg/kg): 2.4 ± 0.3 g
- Increase of body weight ([1]; 7.5 mg/kg): 8.3 ± 5.4 g
- Liver weight ([1]; 7.5 mg/kg): 1.4 ± 0.1 g
- ALT ([1]; 7.5 mg/kg): 32.3 ± 10.1 U/L
- AST ([1]; 7.5 mg/kg): 74.3 ± 18.6 U/L
- TC in liver ([1]; 7.5 mg/kg): 5.0 ± 0.9 mg/g liver
- TG in liver ([1]; 7.5 mg/kg): 56.8 ± 20.0 mg/g liver
- liver TC [1]: reduce TC in liver significantly
- liver TG [1]: reduce TG in liver significantly
- liver antioxidant activity ([1]; 4 weeks): improve antioxidant activity significantly
- ALT and AST values [1]: reduce ALT and AST values significantly
- P450 2E1 inhibitor activity [2]: effective as P450 2E1 inhibitors
- CYP 2E1 inhibition ratio (%) ([2]; 1 μg/mL): 25.1 ± 1.4%
- CYP 2E1 inhibition ratio (%) ([2]; 2 μg/mL): 30.2 ± 2.8%
- CYP 2E1 inhibition ratio (%) ([2]; 4 μg/mL): 32.9 ± 4.6%
